Key:
chickweed = assay: Test Example 5: herbicidal effect by foliage application, plastic box (Table 20, symbol P); format: in vivo, common chickweed (Stellaria media); conditions: foliage application after 14-day growth, evaluated three weeks after application
Procedure, shortened: (§1)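 Sow seeds spot-wise in sterilized diluvial soil; cover with ~1.5 cm soil. Grow 14 days in greenhouse, 25° C. to 30° C. Spray foliage with emulsion diluted to predetermined amount. Rate effect after 3 weeks.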

southern crabgrass = assay: Test Example 5: herbicidal effect by foliage application, plastic box (Table 20, symbol F); format: in vivo, southern crabgrass (Digitaria ciliaris); conditions: foliage application after 14-day growth, evaluated three weeks after application
Procedure, shortened: as §1

lambsquarters = assay: Test Example 5: herbicidal effect by foliage application, plastic box (Table 20, symbol O); format: in vivo, lambsquarters (Chenopodium album); conditions: foliage application after 14-day growth, evaluated three weeks after application
Procedure, shortened: as §1

oval-leafed pondweed [1] = assay: Test Example 2: herbicidal activity, application during weed generation under submerged conditions (Table 17, symbol C); format: in vivo, oval-leafed pondweed (Monochoria vaginalis); conditions: AAH 320 g/ha; application during weed generation, submerged conditions
Procedure, shortened: (§2)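 Herbicide emulsion, diluted with water to the chosen amount, is applied onto 4 cm floodwater over alluvial soil where the weeds were co-sown and raised at 25–30° C. Application timing: 1–2 leaves. Assessment: three weeks afterwards.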

barnyard grass [2] = assay: Test Example 3: herbicidal effect by foliage application, Wagner pot (Table 18, symbol H); format: in vivo, barnyard grass (Echinochloa crus-galli); conditions: 320 g/ha
Procedure, shortened: (§3)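 Plants were sown in alluvial soil held under 0.1–0.5 cm standing water and grown 14 days in a greenhouse at 25–30 °C. An emulsifiable formulation, water-diluted to the set dose, was then sprayed onto the foliage, and effects were scored three weeks later using previously defined criteria.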

velvetleaf = assay: Test Example 5: herbicidal effect by foliage application, plastic box (Table 20, symbol M); format: in vivo, velvetleaf (Abutilon theophrasti); conditions: foliage application after 14-day growth, evaluated three weeks after application
Procedure, shortened: as §1

rice flat sedge = assay: Test Example 3: herbicidal effect by foliage application, Wagner pot (Table 18, symbol E); format: in vivo, rice flat sedge (Cyperus iria); conditions: 320 g/ha
Procedure, shortened: as §3

Italian ryegrass = assay: Test Example 5: herbicidal effect by foliage application, plastic box (Table 20, symbol K); format: in vivo, Italian ryegrass (Lolium multiflorum); conditions: foliage application after 14-day growth, evaluated three weeks after application
Procedure, shortened: as §1

late watergrass [3] = assay: Test Example 1: herbicidal activity, application before weed generation under submerged conditions (Table 16, symbol A); format: in vivo, late watergrass (Echinochloa oryzicola); conditions: amount of applied herbicide 320 g/ha
Procedure, shortened: (§4)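 Emulsion formulation, water-diluted to set dose, was put onto the flooded surface (4 cm depth, alluvial soil) the same day weeds were sown and 2.5-leaf rice transplanted. After 3 weeks at 25-30 °C under glass, each species was rated 0 (≤5% kill) to 5 (≥90% kill).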

persian speedwell = assay: Test Example 5: herbicidal effect by foliage application, plastic box (Table 20, symbol R); format: in vivo, Persian speedwell (Veronica persica); conditions: foliage application after 14-day growth, evaluated three weeks after application
Procedure, shortened: as §1

Japanese bulrush [4] = assay: Test Example 1: herbicidal activity, application before weed generation under submerged conditions (Table 16, symbol B); format: in vivo, Japanese bulrush (Schoenoplectus juncoides); conditions: amount of applied herbicide 320 g/ha
Procedure, shortened: as §4

green foxtail = assay: Test Example 5: herbicidal effect by foliage application, plastic box (Table 20, symbol G); format: in vivo, green foxtail (Setaria viridis); conditions: foliage application after 14-day growth, evaluated three weeks after application
Procedure, shortened: as §1

barnyard grass [5] = assay: Test Example 5: herbicidal effect by foliage application, plastic box (Table 20, symbol H); format: in vivo, barnyard grass (Echinochloa crus-galli); conditions: foliage application after 14-day growth, evaluated three weeks after application
Procedure, shortened: as §1

blackgrass = assay: Test Example 5: herbicidal effect by foliage application, plastic box (Table 20, symbol J); format: in vivo, blackgrass (Alopecurus myosuroides); conditions: foliage application after 14-day growth, evaluated three weeks after application
Procedure, shortened: as §1

Japanese bulrush [6] = assay: Test Example 2: herbicidal activity, application during weed generation under submerged conditions (Table 17, symbol B); format: in vivo, Japanese bulrush (Schoenoplectus juncoides); conditions: AAH 320 g/ha; application during weed generation, submerged conditions
Procedure, shortened: as §2

oval-leafed pondweed [7] = assay: Test Example 1: herbicidal activity, application before weed generation under submerged conditions (Table 16, symbol C); format: in vivo, oval-leafed pondweed (Monochoria vaginalis); conditions: amount of applied herbicide 320 g/ha
Procedure, shortened: as §4

redroot pigweed = assay: Test Example 5: herbicidal effect by foliage application, plastic box (Table 20, symbol N); format: in vivo, redroot pigweed (Amaranthus retroflexus); conditions: foliage application after 14-day growth, evaluated three weeks after application
Procedure, shortened: as §1

Chinese sprangletop = assay: Test Example 3: herbicidal effect by foliage application, Wagner pot (Table 18, symbol D); format: in vivo, chinese sprangletop (Leptochloa chinensis); conditions: 320 g/ha
Procedure, shortened: as §3

late watergrass [8] = assay: Test Example 2: herbicidal activity, application during weed generation under submerged conditions (Table 17, symbol A); format: in vivo, late watergrass (Echinochloa oryzicola); conditions: AAH 320 g/ha; application during weed generation, submerged conditions
Procedure, shortened: as §2

wild oat = assay: Test Example 5: herbicidal effect by foliage application, plastic box (Table 20, symbol I); format: in vivo, wild oat (Avena fatua); conditions: foliage application after 14-day growth, evaluated three weeks after application
Procedure, shortened: as §1

windgrass = assay: Test Example 5: herbicidal effect by foliage application, plastic box (Table 20, symbol L); format: in vivo, windgrass (Apera spica-venti); conditions: foliage application after 14-day growth, evaluated three weeks after application
Procedure, shortened: as §1

[9] = amount of applied herbicide 320 g/ha

With `COc1ccc2c(-c3c(OC(=O)C(C)c4ccccc4)c(C)nn(C)c3=O)c(-c3ccccc3OC)sc2c1` (stereo not drawn) [3-157] the “herbicidal effect on P: chickweed (evaluation grade 0-5)” value (chickweed; 320 g/ha) was 4 (Herbicidal rate of 70% or more and less than 90%), the “herbicidal effect on F: southern crabgrass (evaluation grade 0-5)” value (southern crabgrass; 320 g/ha) was 4 (Herbicidal rate of 70% or more and less than 90%) and the “herbicidal effect on O: lambsquarters (evaluation grade 0-5)” value (lambsquarters; 320 g/ha) was 4 (Herbicidal rate of 70% or more and less than 90%). The “herbicidal effect rating, C: oval-leafed pondweed” value (oval-leafed pondweed [1]) was 4 (Herbicidal rate of 70% or more and less than 90%), the “herbicidal effect on barnyard grass (H)” value (barnyard grass [2]) was 5 (Herbicidal rate of 90% or more (almost completely withered)) and the “herbicidal effect on M: velvetleaf (evaluation grade 0-5)” value (velvetleaf; 320 g/ha) was 5 (Herbicidal rate of 90% or more (almost completely withered)). For the same compound, the “herbicidal effect on rice flat sedge (E)” value (rice flat sedge) was 3 (Herbicidal rate of 40% or more and less than 70%), the “herbicidal effect on K: Italian ryegrass (evaluation grade 0-5)” value (Italian ryegrass; 320 g/ha) was 3 (Herbicidal rate of 40% or more and less than 70%) and the “Herbicidal effect, A: late watergrass” value (late watergrass [3]) was 5 (Herbicidal rate of 90% or more (almost completely withered)). For the same compound, the “herbicidal effect on R: persian speedwell (evaluation grade 0-5)” value (persian speedwell; 320 g/ha) was 4 (Herbicidal rate of 70% or more and less than 90%), the “Herbicidal effect, B: Japanese bulrush” value (Japanese bulrush [4]) was 3 (Herbicidal rate of 40% or more and less than 70%) and the “herbicidal effect on G: green foxtail (evaluation grade 0-5)” value (green foxtail; 320 g/ha) was 4 (Herbicidal rate of 70% or more and less than 90%). The “herbicidal effect on H: barnyard grass (evaluation grade 0-5)” value (barnyard grass [5]; 320 g/ha) was 5 (Herbicidal rate of 90% or more (almost completely withered)), the “herbicidal effect on J: blackgrass (evaluation grade 0-5)” value (blackgrass; 320 g/ha) was 4 (Herbicidal rate of 70% or more and less than 90%) and the “herbicidal effect rating, B: Japanese bulrush” value (Japanese bulrush [6]) was 3 (Herbicidal rate of 40% or more and less than 70%). For the same compound, the “Herbicidal effect, C: oval-leafed pondweed” value (oval-leafed pondweed [7]) was 3 (Herbicidal rate of 40% or more and less than 70%), the “herbicidal effect on N: redroot pigweed (evaluation grade 0-5)” value (redroot pigweed; 320 g/ha) was 4 (Herbicidal rate of 70% or more and less than 90%) and the “herbicidal effect on Chinese sprangletop (D)” value (Chinese sprangletop) was 3 (Herbicidal rate of 40% or more and less than 70%). For the same compound, the “herbicidal effect rating, A: late watergrass” value (late watergrass [8]) was 4 (Herbicidal rate of 70% or more and less than 90%), the “herbicidal effect on I: wild oat (evaluation grade 0-5)” value (wild oat; 320 g/ha) was 3 (Herbicidal rate of 40% or more and less than 70%) and the “herbicidal effect on L: windgrass (evaluation grade 0-5)” value (windgrass; 320 g/ha) was 5 (Herbicidal rate of 90% or more (almost completely withered)).

For `CCCC(=O)Oc1c(C)nn(C)c(=O)c1-c1c(-c2ccc(C#N)cc2)sc2cc(Cl)c(Cl)cc12` [5-050], the “Herbicidal effect by foliage application, P: chickweed” value (chickweed; [9]) was 3 (Herbicidal rate of 40% or more and less than 70%), the “Herbicidal effect by foliage application, F: southern crabgrass” value (southern crabgrass; [9]) was 0 (Herbicidal rate of 5% or less (almost no effect)) and the “Herbicidal effect by foliage application, O: lambsquarters” value (lambsquarters; [9]) was 0 (Herbicidal rate of 5% or less (almost no effect)). The “herbicidal effect rating, C: oval-leafed pondweed” value (oval-leafed pondweed [1]) was 0 (Herbicidal rate of 5% or less (almost no effect)), the “herbicidal effect on barnyard grass (H)” value (barnyard grass [2]) was 2 (Herbicidal rate of 20% or more and less than 40%) and the “Herbicidal effect by foliage application, M: velvetleaf” value (velvetleaf; [9]) was 0 (Herbicidal rate of 5% or less (almost no effect)). The “herbicidal effect on rice flat sedge (E)” value (rice flat sedge) was 0 (Herbicidal rate of 5% or less (almost no effect)), the “Herbicidal effect by foliage application, K: Italian ryegrass” value (Italian ryegrass; [9]) was 0 (Herbicidal rate of 5% or less (almost no effect)) and the “Herbicidal effect, A: late watergrass” value (late watergrass [3]) was 3 (Herbicidal rate of 40% or more and less than 70%). For the same compound, the “Herbicidal effect by foliage application, R: persian speedwell” value (persian speedwell; [9]) was 3 (Herbicidal rate of 40% or more and less than 70%), the “Herbicidal effect, B: Japanese bulrush” value (Japanese bulrush [4]) was 0 (Herbicidal rate of 5% or less (almost no effect)) and the “Herbicidal effect by foliage application, G: green foxtail” value (green foxtail; [9]) was 0 (Herbicidal rate of 5% or less (almost no effect)). The “Herbicidal effect by foliage application, H: barnyard grass” value (barnyard grass [5]; [9]) was 0 (Herbicidal rate of 5% or less (almost no effect)), the “Herbicidal effect by foliage application, J: blackgrass” value (blackgrass; [9]) was 0 (Herbicidal rate of 5% or less (almost no effect)) and the “herbicidal effect rating, B: Japanese bulrush” value (Japanese bulrush [6]) was 2 (Herbicidal rate of 20% or more and less than 40%). The “Herbicidal effect, C: oval-leafed pondweed” value (oval-leafed pondweed [7]) was 0 (Herbicidal rate of 5% or less (almost no effect)), the “Herbicidal effect by foliage application, N: redroot pigweed” value (redroot pigweed; [9]) was 0 (Herbicidal rate of 5% or less (almost no effect)) and the “herbicidal effect on Chinese sprangletop (D)” value (Chinese sprangletop) was 4 (Herbicidal rate of 70% or more and less than 90%). The “herbicidal effect rating, A: late watergrass” value (late watergrass [8]) was 0 (Herbicidal rate of 5% or less (almost no effect)), the “Herbicidal effect by foliage application, I: wild oat” value (wild oat; [9]) was 0 (Herbicidal rate of 5% or less (almost no effect)) and the “Herbicidal effect by foliage application, L: windgrass” value (windgrass; [9]) was 0 (Herbicidal rate of 5% or less (almost no effect)).
